Where “and” joins values, the source holds several entries; their conditions need not be identical. Equal values may be shown once. Inconclusive results and toxic doses are left out.
Test system: P388 leukemia ip, CD2F1 mice, survival T/C
Experiment: NCI In Vivo Anticancer Drug Screen. Data for tumor model P388 Leukemia (intraperitoneal) in CD2F1 (CDF1) mice
Conditions: endpoint: median survival time, higher = longer survival
Summary of the method: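 Mice carrying the transplanted tumor received test compound or vehicle. Survival was recorded in each group, and the value is the treated-group measurement divided by that of the vehicle-treated control group.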

[1] = dose: 50.0 mg/kg/injection, schedule: Q01DX005 (ip), vehicle: saline with Tween-80
[2] = dose: 100.0 mg/kg/injection, schedule: Q01DX005 (ip), vehicle: saline with Tween-80
[3] = dose: 200.0 mg/kg/injection, schedule: Q01DX005 (ip), vehicle: saline with Tween-80

With CC(=O)O[C@H]1C(=O)[C@@]2(C)[C@H]([C@H](OC(=O)c3ccccc3)[C@]3(O)C[C@H](OC(=O)[C@H](O)[C@@H](NC(=O)c4ccccc4)c4ccccc4)C(C)=C1C3(C)C)[C@]1(OC(C)=O)CO[C@@H]1C[C@@H]2O the T/C (dose: 1.1 mg/kg/injection, schedule: Q01DX005 (ip), vehicle: other) was 118 % of control, the T/C (dose: 1.1 mg/kg/injection, schedule: Q01DX005 (iv), vehicle: other) was 98 % of control and the T/C (dose: 1.1 mg/kg/injection, schedule: Q01DX009 (oral), vehicle: other) was 106 % of control. The T/C (dose: 1.25 mg/kg/injection, schedule: Q01DX009 (ip), vehicle: Klucel (hydroxypropylcellulose) (HPC)) was 106 % of control, the T/C (dose: 1.25 mg/kg/injection, schedule: Q01DX009 (sc), vehicle: Klucel (hydroxypropylcellulose) (HPC)) was 106 % of control and the T/C (dose: 1.7 mg/kg/injection, schedule: Q01DX005 (ip), vehicle: other) was 115 % of control. The T/C (dose: 1.7 mg/kg/injection, schedule: Q01DX005 (iv), vehicle: other) was 106 % of control, the T/C (dose: 1.7 mg/kg/injection, schedule: Q03HX024 (ip), vehicle: other) was 160 % of control and the T/C (dose: 2.5 mg/kg/injection, schedule: Q01DX005 (ip), vehicle: Klucel (hydroxypropylcellulose) (HPC)) was 124 % of control. The T/C (dose: 2.5 mg/kg/injection, schedule: Q01DX009 (ip), vehicle: Klucel (hydroxypropylcellulose) (HPC)) was 112 % of control, the T/C (dose: 2.5 mg/kg/injection, schedule: Q01DX009 (oral), vehicle: Klucel (hydroxypropylcellulose) (HPC)) was 100 % of control and the T/C (dose: 2.5 mg/kg/injection, schedule: Q01DX009 (sc), vehicle: Klucel (hydroxypropylcellulose) (HPC)) was 99 % of control. For the same compound, the T/C (dose: 2.6 mg/kg/injection, schedule: Q01DX001 (ip), vehicle: other) was 106 % of control, the T/C (dose: 2.6 mg/kg/injection, schedule: Q01DX001 (iv), vehicle: other) was 94 % of control and the T/C (dose: 2.6 mg/kg/injection, schedule: Q01DX005 (ip), vehicle: other) was 115 % of control. The T/C (dose: 2.6 mg/kg/injection, schedule: Q01DX005 (iv), vehicle: other) was 97 % of control, the T/C (dose: 2.6 mg/kg/injection, schedule: Q03HX024 (ip), vehicle: other) was 153 % of control and the T/C (dose: 2.6 mg/kg/injection, schedule: Q04DX003 (iv), vehicle: other) was 87 % of control. For the same compound, the T/C (dose: 3.6 mg/kg/injection, schedule: Q01DX005 (ip), vehicle: Klucel (hydroxypropylcellulose) (HPC)) was 161 % of control, the T/C (dose: 4.0 mg/kg/injection, schedule: Q01DX001 (iv), vehicle: other) was 95 % of control and the T/C (dose: 4.0 mg/kg/injection, schedule: Q01DX005 (ip), vehicle: other) was 120 % of control. For the same compound, the T/C (dose: 4.0 mg/kg/injection, schedule: Q01DX009 (oral), vehicle: other) was 96 % of control, the T/C (dose: 4.0 mg/kg/injection, schedule: Q03HX008 (ip), vehicle: other) was 156 % of control and the T/C (dose: 4.0 mg/kg/injection, schedule: Q04DX003 (ip), vehicle: other) was 120 % of control. For the same compound, the T/C (dose: 4.0 mg/kg/injection, schedule: Q04DX003 (iv), vehicle: other) was 87 % of control, the T/C (dose: 5.0 mg/kg/injection, schedule: Q01DX009 (ip), vehicle: Klucel (hydroxypropylcellulose) (HPC)) was 116 % of control and the T/C (dose: 5.0 mg/kg/injection, schedule: Q01DX009 (oral), vehicle: Klucel (hydroxypropylcellulose) (HPC)) was 99 % of control. The T/C (dose: 5.0 mg/kg/injection, schedule: Q01DX009 (sc), vehicle: Klucel (hydroxypropylcellulose) (HPC)) was 98 % of control, the T/C (dose: 6.0 mg/kg/injection, schedule: Q01DX001 (ip), vehicle: other) was 106 % of control and the T/C (dose: 6.0 mg/kg/injection, schedule: Q01DX005 (iv), vehicle: other) was 112 % of control. For the same compound, the T/C (dose: 6.0 mg/kg/injection, schedule: Q01DX009 (oral), vehicle: other) was 99 % of control, the T/C (dose: 6.0 mg/kg/injection, schedule: Q03HX008 (ip), vehicle: other) was 178 % of control and the T/C (dose: 6.0 mg/kg/injection, schedule: Q04DX003 (iv), vehicle: other) was 89 % of control. The T/C (dose: 9.0 mg/kg/injection, schedule: Q01DX001 (ip), vehicle: other) was 115 % of control, the T/C (dose: 9.0 mg/kg/injection, schedule: Q01DX001 (iv), vehicle: other) was 106 % of control and the T/C (dose: 9.0 mg/kg/injection, schedule: Q01DX005 (iv), vehicle: other) was 118 % of control. For the same compound, the T/C (dose: 9.0 mg/kg/injection, schedule: Q01DX009 (oral), vehicle: other) was 97 % of control, the T/C (dose: 10.0 mg/kg/injection, schedule: Q01DX009 (ip), vehicle: Klucel (hydroxypropylcellulose) (HPC)) was 100 % of control and 106 % of control and the T/C (dose: 10.0 mg/kg/injection, schedule: Q01DX009 (oral), vehicle: Klucel (hydroxypropylcellulose) (HPC)) was 99 % of control. For the same compound, the T/C (dose: 10.0 mg/kg/injection, schedule: Q01DX009 (sc), vehicle: Klucel (hydroxypropylcellulose) (HPC)) was 96 % of control, the T/C (dose: 12.5 mg/kg/injection, schedule: Q04DX003 (ip), vehicle: Klucel (hydroxypropylcellulose) (HPC)) was 150 % of control and 160 % of control and the T/C (dose: 16.7 mg/kg/injection, schedule: Q01DX005 (ip), vehicle: Klucel (hydroxypropylcellulose) (HPC)) was 96 % of control. The T/C (dose: 20.0 mg/kg/injection, schedule: Q01DX009 (ip), vehicle: Klucel (hydroxypropylcellulose) (HPC)) was 88 % of control, the T/C (dose: 20.0 mg/kg/injection, schedule: Q01DX009 (oral), vehicle: Klucel (hydroxypropylcellulose) (HPC)) was 98 % of control and the T/C (dose: 20.0 mg/kg/injection, schedule: Q01DX009 (sc), vehicle: Klucel (hydroxypropylcellulose) (HPC)) was 97 % of control. For the same compound, the T/C (dose: 21.6 mg/kg/injection, schedule: Q04DX003 (ip), vehicle: Klucel (hydroxypropylcellulose) (HPC)) was 157 % of control, the T/C (dose: 25.0 mg/kg/injection, schedule: Q04DX003 (ip), vehicle: Klucel (hydroxypropylcellulose) (HPC)) was 151 % of control and 155 % of control and the T/C (dose: 40.0 mg/kg/injection, schedule: Q01DX009 (oral), vehicle: Klucel (hydroxypropylcellulose) (HPC)) was 104 % of control. For the same compound, the T/C (dose: 50.0 mg/kg/injection, schedule: Q04DX003 (ip), vehicle: Klucel (hydroxypropylcellulose) (HPC)) was 124 % of control, the T/C (dose: 60.0 mg/kg/injection, schedule: Q04DX003 (ip), vehicle: Klucel (hydroxypropylcellulose) (HPC)) was 107 % of control and the T/C (dose: 80.0 mg/kg/injection, schedule: Q01DX009 (oral), vehicle: Klucel (hydroxypropylcellulose) (HPC)) was 98 % of control. For the same compound, the T/C (dose: 160.0 mg/kg/injection, schedule: Q01DX009 (oral), vehicle: Klucel (hydroxypropylcellulose) (HPC)) was 99 % of control.
With COC1OC(COC(C)=O)C(N(C)C(C)=O)C1OC(C)=O (stereo unspecified) the T/C (dose: 60.0 mg/kg/injection, schedule: Q01DX005 (ip), vehicle: saline) was 103 % of control, the T/C (dose: 120.0 mg/kg/injection, schedule: Q01DX005 (ip), vehicle: saline) was 96 % of control and the T/C (dose: 240.0 mg/kg/injection, schedule: Q01DX005 (ip), vehicle: saline) was 104 % of control.
For c1ccc2nc(N3CCCCC3)c(N3CCCCCC3)nc2c1, the T/C (dose: 50.0 mg/kg/injection, schedule: Q01DX005 (ip), vehicle: Klucel (hydroxypropylcellulose) (HPC)) was 97 % of control, the T/C (dose: 100.0 mg/kg/injection, schedule: Q01DX005 (ip), vehicle: Klucel (hydroxypropylcellulose) (HPC)) was 100 % of control and the T/C (dose: 200.0 mg/kg/injection, schedule: Q01DX005 (ip), vehicle: Klucel (hydroxypropylcellulose) (HPC)) was 99 % of control.
N#CCCCCCCCCCCC(=O)O was tested, and the T/C (dose: 100.0 mg/kg/injection, schedule: Q01DX009 (ip), vehicle: saline) was 93 % of control, the T/C (dose: 200.0 mg/kg/injection, schedule: Q01DX009 (ip), vehicle: saline) was 91 % of control and the T/C (dose: 400.0 mg/kg/injection, schedule: Q01DX009 (ip), vehicle: saline) was 94 % of control.
In the case of NC1=NN(Cc2nnc(-c3ccccc3)s2)C(=O)C1, the T/C (dose: 60.0 mg/kg/injection, schedule: Q01DX005 (ip), vehicle: saline with Tween-80) is reported as 93 % of control, the T/C (dose: 120.0 mg/kg/injection, schedule: Q01DX005 (ip), vehicle: saline with Tween-80) is reported as 101 % of control and the T/C (dose: 240.0 mg/kg/injection, schedule: Q01DX005 (ip), vehicle: saline with Tween-80) is reported as 111 % of control.
CCOC(=O)C(=CNc1ccc2c(c1)OCO2)C(=O)OCC was tested, and the T/C (dose: 50.0 mg/kg/injection, schedule: Q01DX005 (ip), vehicle: distilled water + Tween-80 + alcohol) was 100 % of control, the T/C (dose: 100.0 mg/kg/injection, schedule: Q01DX005 (ip), vehicle: distilled water + Tween-80 + alcohol) was 95 % of control and the T/C (dose: 200.0 mg/kg/injection, schedule: Q01DX005 (ip), vehicle: distilled water + Tween-80 + alcohol) was 102 % of control.
For ClB1NB(Cl)NB(Cl)N1, the T/C (dose: 100.0 mg/kg/injection, schedule: Q01DX009 (ip), vehicle: Klucel (hydroxypropylcellulose) (HPC)) was 108 % of control and 93 % of control, the T/C (dose: 200.0 mg/kg/injection, schedule: Q01DX009 (ip), vehicle: Klucel (hydroxypropylcellulose) (HPC)) was 108 % of control and 86 % of control and the T/C (dose: 400.0 mg/kg/injection, schedule: Q01DX009 (ip), vehicle: Klucel (hydroxypropylcellulose) (HPC)) was 109 % of control and 95 % of control.
With CC(=O)C(C(=O)Nc1cccc2ccccc12)C(C)=NCCN=C(C)C(C(C)=O)C(=O)Nc1cccc2ccccc12.[Cu] (stereo unspecified) the T/C [1] was 94 % of control, the T/C [2] was 96 % of control and the T/C [3] was 96 % of control.
In the case of CN(C)C1C(=O)C(C(=O)NCN2CCCC2)=C(O)C2(O)C(=O)C3=C(O)c4c(O)cccc4C(C)(O)C3CC12 (stereo unspecified), the T/C [1] is reported as 96 % of control, the T/C [2] is reported as 95 % of control and the T/C [3] is reported as 97 % of control.

Reference: PubChem BioAssay AID330 (DTP/NCI, 2004)
